Patent publication US11458102B2, “Acetaminophen preparation, and method for producing same” (NIPPON ZOKI PHARMACEUTICAL CO., LTD., priority 2017, dated 2022)

Assay: Particle size distribution of acetaminophen drug substance by laser-diffraction method (dry measurement)
Assay type: physicochemical
Source text: The acetaminophen to be used in the present invention (also referred to as “the present acetaminophen”) has a particle size distribution in which d10 is generally 5 to 200 μm, preferably 10 to 150 μm, more preferably 12 to 100 μm, and d90 is generally 200 to 1800 μm, preferably 250 to 1600 μm, more preferably 280 to 1450 μm. Although there are some differences in the particle size distribution among lots, the unpulverized acetaminophen generally has the above-specified particle size distribution. In contrast, although there are some differences in the particle size distribution of a pulverized product of acetaminophen among the manufacturers of the drug substance and production lots, a pulverized product of acetaminophen generally has a particle size distribution in which the d10 is 3 to 10 μm and d90 is 100 to 250 μm, and therefore the particle diameters of the pulverized product of acetaminophen are smaller compared with those of the present acetaminophen. In the present invention, the particle size distribution is determined by a volume distribution evaluation employing a laser-diffraction method (Measuring Instrument: e.g., Mastersizer 2000 or Mastersizer 3000 (Malvern), Dispersion compression air pressure: 2 to 4 Bar), and the terms “d10”, “d50”, and “d90” refer to particle diameters at a volume cumulative 10% point, a volume cumulative 50% point, and a volume cumulative 90% point, respectively, as observed from the smaller diameter side in the particle size distribution. “a laser-diffraction method” is also referred to as “a laser-diffraction scattering method” Each of unpulverized products of acetaminophen (lots A to P) and pulverized products of acetaminophen (lots a to b) was subjected to a particle size distribution measurement using a particle measurement method (dry measurement) by a laser-diffraction method. As an instrument, a dry automated dispersion unit microtray (Mastersizer 2000 or Mastersizer 3000, Malvern) was used, the dispersion compression air pressure was 2 Bar or 4 Bar, and the analysis of particle size distribution was performed by a volume conversion method. […] The range of the particle size distribution in the present invention is determined with taking the above-mentioned finding into consideration. The lots of the acetaminophen drug substances shown in Table 1 are different from each other with respect to the conditions for manufacturing thereof, such as temperature and humidity. […] For example, the results of (1) to (2) of lot E and (1) to (12) of lot H in Table 1 are the results for different measurement samples of the same lots. As apparent from the results, the measurement results may vary depending on the zones of sampling even when the samples are of the same lot or depending on the types of measurement instrument to be used even when the measurement is carried out by the same method.

[1] = Mastersizer 2000, laser diffraction, volume distribution, dry, listed as A
[2] = Mastersizer 2000, laser diffraction, volume distribution, dry, listed as a
[3] = Mastersizer 2000, laser diffraction, volume distribution, dry, listed as L
[4] = Mastersizer 2000, laser diffraction, volume distribution, dry, listed as E
[5] = Mastersizer 3000, laser diffraction, volume distribution, dry
[6] = Mastersizer 2000, laser diffraction, volume distribution, dry, listed as M
[7] = Mastersizer 2000, laser diffraction, volume distribution, dry, listed as I
[8] = Mastersizer 2000, laser diffraction, volume distribution, dry, listed as K
[9] = Mastersizer 2000, laser diffraction, volume distribution, dry, listed as G
[10] = Mastersizer 2000, laser diffraction, volume distribution, dry, listed as B
[11] = Mastersizer 2000, laser diffraction, volume distribution, dry, listed as b
[12] = Mastersizer 2000, laser diffraction, volume distribution, dry, listed as J
[13] = Mastersizer 2000, laser diffraction, volume distribution, dry, listed as H
[14] = Mastersizer 2000, laser diffraction, volume distribution, dry, listed as O
[15] = Mastersizer 2000, laser diffraction, volume distribution, dry, listed as P
[16] = Mastersizer 2000, laser diffraction, volume distribution, dry, listed as D
[17] = measurement instrument printed as dash, listed as d
[18] = Mastersizer 2000, laser diffraction, volume distribution, dry, listed as F
[19] = Mastersizer 2000, laser diffraction, volume distribution, dry, listed as N
[20] = Mastersizer 2000, laser diffraction, volume distribution, dry, listed as C
[21] = measurement instrument printed as dash, listed as c

## CC(=O)Nc1ccc(O)cc1 [Lot A, acetaminophen]
[1]
  Particle Diameters D10: 20 μm
  Particle Diameters D90: 320 μm
[2]
  Particle Diameters D10: 4 μm
  Particle Diameters D90: 166 μm

## CC(=O)Nc1ccc(O)cc1 [Lot L, acetaminophen]
[3]
  Particle Diameters D10: 30 μm
  Particle Diameters D90: 486 μm

## CC(=O)Nc1ccc(O)cc1 [Lot E, acetaminophen]
[4]
  Particle Diameters D10: 16 μm
  Particle Diameters D90: 361 μm
[5]
  Particle Diameters D10: 66 μm
  Particle Diameters D90: 1290 μm

## CC(=O)Nc1ccc(O)cc1 [Lot M, acetaminophen]
[6]
  Particle Diameters D10: 27 μm
  Particle Diameters D90: 419 μm

## CC(=O)Nc1ccc(O)cc1 [Lot I, acetaminophen]
[7]
  Particle Diameters D10: 22 μm
  Particle Diameters D90: 433 μm

## CC(=O)Nc1ccc(O)cc1 [Lot K, acetaminophen]
[8]
  Particle Diameters D10: 22 μm
  Particle Diameters D90: 442 μm

## CC(=O)Nc1ccc(O)cc1 [Lot G, acetaminophen]
[9]
  Particle Diameters D10: 24 μm
  Particle Diameters D90: 432 μm

## CC(=O)Nc1ccc(O)cc1 [Lot B, acetaminophen]
[10]
  Particle Diameters D10: 30 μm
  Particle Diameters D90: 551 μm
[11]
  Particle Diameters D10: 4 μm
  Particle Diameters D90: 144 μm

## CC(=O)Nc1ccc(O)cc1 [Lot J, acetaminophen]
[12]
  Particle Diameters D10: 27 μm
  Particle Diameters D90: 404 μm

## CC(=O)Nc1ccc(O)cc1 [Lot H, acetaminophen]
[13]
  Particle Diameters D10: 23 μm
  Particle Diameters D90: 429 μm

## CC(=O)Nc1ccc(O)cc1 [Lot O, acetaminophen]
[14]
  Particle Diameters D10: 24 μm
  Particle Diameters D90: 387 μm

## CC(=O)Nc1ccc(O)cc1 [Lot P, acetaminophen]
[15]
  Particle Diameters D10: 20 μm
  Particle Diameters D90: 424 μm

## CC(=O)Nc1ccc(O)cc1 [Lot D, acetaminophen]
[16]
  Particle Diameters D10: 20 μm
  Particle Diameters D90: 464 μm
[17]
  Particle Diameters D10: 10 μm
  Particle Diameters D90: 192 μm

## CC(=O)Nc1ccc(O)cc1 [Lot F, acetaminophen]
[18]
  Particle Diameters D10: 31 μm
  Particle Diameters D90: 488 μm

## CC(=O)Nc1ccc(O)cc1 [Lot N, acetaminophen]
[19]
  Particle Diameters D10: 26 μm
  Particle Diameters D90: 439 μm

## CC(=O)Nc1ccc(O)cc1 [Lot C, acetaminophen]
[20]
  Particle Diameters D10: 26 μm
  Particle Diameters D90: 419 μm
[21]
  Particle Diameters D10: 6 μm
  Particle Diameters D90: 104 μm
